The subject of series [1] is Mtb H37Ra^lux. Put plainly: microbe, parasite or virus in culture. Type of series: cell-based, Mycobacterium tuberculosis. The note with it: for MIC50: Mycobacterium tuberculosis, H37RA.
Series [2] in a line: RAW264.7 cytotoxicity (CellTiter-Glo). In kind it is cell-based, murine. The note with it: mouse, RAW264.7 macrophage-like cells. The procedure: The RAW264.7 cell line was cultured in DMEM supplemented with 10% FBS, 2-mM L-glutamine, 100-U/mL penicillin and 100-µg/mL streptomycin at 37°C and 5% CO2. Cells were seeded on black, clear-bottom 96-well plates at 2.5 × 10^5 cells/mL. Test compounds and reference compounds (BDQ and tamoxifen) were added in nine twofold serial dilutions in 100% DMSO with a top concentration of 25 µM. The plate setup included high (no growth inhibition) and low (100% growth inhibition) controls in columns 12 and 1, respectively. Medium without cell suspension was added to the low control wells. Final DMSO concentration reached 1% for test and control wells. Plates were incubated for 60 hours at 37°C and 5% CO2. Before adding the readout reagent, plates were equilibrated at room temperature for 30 min. The CellTiter-Glo version 2.0 Assay (Promega, cat. #G7572) was then added to test wells in a 1:1 ratio and mixed for 2 min on an orbital shaker. The plate was incubated for 10 min at RT to stabilize the luminescent signal. The luminescence was recorded using Glomax Discover microplate reader (Promega). Cell viability was determined by normalization of the recorded signal and establishment of the 50% cytotoxicity concentration based on the non-linear regression curve analysis (GraphPad Prism version 9). The assay was performed in duplicate in two independent experiments.
In general terms: In ATP-based viability assays light output follows the ATP content of the culture.

Series [3] has as its target Mycobacterium tuberculosis mycothione reductase (MtrMtb) (Mycobacterium tuberculosis, UniProt P9WHH3). Description: MtrMtb luminescence-coupled enzymatic assay, confirmation screen (11-point dose-response). Type of series: biochemical.
For series [4], the system named is Mtb H37Ra^lux in RAW264.7 murine macrophages. Put plainly: microbe, parasite or virus in culture. Type of series: cell-based, Mycobacterium tuberculosis. The note with it: for MIC50: Mycobacterium tuberculosis, H37RA, 60 h.
Setting [5] is: read-out: MIC50 (µM) Mtb H37Ra^lux.
Setting [6] is: sulfonylamine series, fragment molecules, reference compounds.
Where [7] appears, read: sulfonylamine series, fragment molecules, reference compounds, read-out: IC50 (µM) MtrMtb.
Where [8] appears, read: read-out: RAW264.7 MIC50 (µM) (Mtb H37Ra^lux).
Setting [9] is: read-out: MIC50 (Mtb H37Ra^lux).
[10] abbreviates: read-out: RAW264.7 MIC50 (Mtb H37Ra^lux).
Where [11] appears, read: morpholine series, acute cellular toxicity, unit not in this head.
Where [12] appears, read: morpholine series, average IC50 in the confirmation screen (dose-response), unit not in this head, µM, read-out: qIC50 (MtrMtb).

Converted amounts (≈) assume the structure as drawn. Read-outs that look alike come from different tables or passages of the source.

Sequence of Mycobacterium tuberculosis mycothione reductase (MtrMtb) (P9WHH3 whole entry): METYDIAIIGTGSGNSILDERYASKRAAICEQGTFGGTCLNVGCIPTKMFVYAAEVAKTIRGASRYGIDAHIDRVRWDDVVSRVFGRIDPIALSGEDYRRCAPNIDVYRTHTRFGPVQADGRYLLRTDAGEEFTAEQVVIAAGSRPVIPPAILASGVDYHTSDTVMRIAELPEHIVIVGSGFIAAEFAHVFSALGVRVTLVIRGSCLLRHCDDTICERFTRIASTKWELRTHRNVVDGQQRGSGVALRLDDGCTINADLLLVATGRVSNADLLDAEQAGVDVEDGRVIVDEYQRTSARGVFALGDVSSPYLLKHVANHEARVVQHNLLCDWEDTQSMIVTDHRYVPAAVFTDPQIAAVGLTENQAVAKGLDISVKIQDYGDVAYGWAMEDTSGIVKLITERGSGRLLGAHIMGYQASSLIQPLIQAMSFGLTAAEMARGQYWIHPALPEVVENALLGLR

Consider `COc1nc2ccc(Br)cc2cc1[C@@H](c1ccccc1)[C@@](O)(CCN(C)C)c1cccc2ccccc12` [Bedaquiline, reference compound], for which the MIC50 in series [1] (setting [5]) was found to be 0.01 µM (≈ 0.00556 µg/mL). The CC50 (usually the concentration at which the toxic effect on the cells reaches its halfway point) at 60 h in series [2] (setting [6]) was more than 50 µM.
As for `CCNc1cc(Oc2ccc(NS(=O)(=O)c3ccc(C)cc3)c(C(=O)O)c2)ccc1NS(=O)(=O)c1ccc(C)cc1` [Respiri-1031], the MIC50 in series [1] (setting [5]) and in series [4] (setting [8]) was more than 25 µM throughout. Moreover, the IC50 in series [3] (setting [7]) came out at 2.16 µM.
Turning to `CNc1cc(Oc2ccc(NS(=O)(=O)c3ccc(C)cc3)c(C(=O)O)c2)ccc1NS(=O)(=O)c1ccc(C)cc1` [Respiri-1075], the MIC50 in series [1] (setting [5]) and in series [4] (setting [8]) was more than 25 µM in each case.
Consider `COc1cccc(-c2nc(N3CCOC[C@@H]3C)nc3c2CCNCC3)c1` [Respiri-1076], for which the MIC50 in series [1] (setting [9]) and in series [4] (setting [10]) was more than 25 µM in each case. This compound came in with a CC50 at 60 h in series [2] (setting [11]) of more than 25 µM.
Consider `C[C@H]1COCCN1c1nc2c(c(-c3ccc(F)cc3)n1)CCNCC2` [Respiri-1077], for which the MIC50 in series [1] (setting [9]) and in series [4] (setting [10]) was more than 25 µM throughout. The compound also registered a CC50 at 60 h in series [2] (setting [11]) of more than 25 µM.
Regarding `C[C@H]1COCCN1c1nc2c(c(-c3ccc(Cl)cc3)n1)CCNCC2` [Respiri-1078], the “anti-mycobacterial activity in whole-cell assay (Mtb H37Ra^lux MIC50), in words” value (shortened to “anti-mycobacterial activity”) in series [1] is given as “activity”. Also, the MIC50 in series [1] (setting [9]) turned out to be 11.9 µM (≈ 4.26 µg/mL); in series [4] (setting [10]) it was 14.1 µM (≈ 5.05 µg/mL). For the same compound, the IC50 in series [3] (setting [12]) came to 4.47 µM. The “intracellular activity in macrophage infection assay, in words” value (“intracellular activity” below) in series [4] is on record as “Intracellular activity was detected”. In series [2] (setting [11]), the CC50 at 60 h was 13.7 µM.
With `C[C@H]1COCCN1c1nc2c(c(-c3cc4ccccc4o3)n1)CCNCC2` [Respiri-1079], the “anti-mycobacterial activity” value in series [1] is on record as “activity”. For the same compound, the MIC50 in series [1] (setting [9]) worked out at 5.7 µM (≈ 2.08 µg/mL); in series [4] (setting [10]) it was 12.2 µM (≈ 4.44 µg/mL). For the same compound, the IC50 in series [3] (setting [12]) was determined as 1.99 µM. In addition, the “intracellular activity” value in series [4] was “Intracellular activity was detected”. For the same compound, in series [2] (setting [11]), the CC50 at 60 h came to 11 µM.
`C[C@H]1COCCN1c1nc2c(c(-c3ccc4c(c3)OCO4)n1)CCNCC2` [Respiri-1080]: the MIC50 in series [1] (setting [9]) and in series [4] (setting [10]) was more than 25 µM in each case. Besides, in series [3] (setting [12]), the IC50 was 5.98 µM. In addition, the CC50 at 60 h in series [2] (setting [11]) was more than 5 µM.
On to `C[C@H]1COCCN1c1nc2c(c(-c3ccc4ncccc4c3)n1)CCNCC2` [Respiri-1081], for which the MIC50 in series [1] (setting [9]) and in series [4] (setting [10]) was more than 25 µM throughout. In addition, in series [3] (setting [12]), the IC50 stood at 3.75 µM. Moreover, the CC50 at 60 h in series [2] (setting [11]) was more than 25 µM.
`C[C@H]1COCCN1c1nc2c(c(-c3ccc4ccccc4c3)n1)CCNCC2` [Respiri-1082]: the “anti-mycobacterial activity” value in series [1] is “activity”. In addition, the values for the MIC50 in series [1] (setting [9]) and in series [4] (setting [10]) were 4.02 µM (≈ 1.51 µg/mL) and 7.16 µM (≈ 2.68 µg/mL), respectively. For the same compound, in series [3] (setting [12]), the IC50 is 3.03 µM. Moreover, in series [4], the “intracellular activity” value is recorded as “Intracellular activity was detected”. Moreover, the CC50 at 60 h in series [2] (setting [11]) turned out to be 9.69 µM.
In the case of `C[C@H]1COCCN1c1nc2c(c(-c3ccnc4ccccc34)n1)CCNCC2` [Respiri-1083], the MIC50 in series [1] (setting [9]) and in series [4] (setting [10]) was more than 25 µM each time. Also, in series [3] (setting [12]), the IC50 amounted to 2.34 µM. The compound also came in with a CC50 at 60 h in series [2] (setting [11]) of more than 25 µM.
As for `C[C@H]1COCCN1c1cc(-c2cc3ccccc3s2)c2c(n1)CCNCC2` [Respiri-1084], the MIC50 in series [1] (setting [9]) was more than 25 µM; in series [4] (setting [10]) it was 10.2 µM (≈ 3.88 µg/mL). In series [3] (setting [12]), the IC50 came to 2.88 µM. Further, the “intracellular activity” value in series [4] is “Intracellular activity was detected”. Further, the CC50 at 60 h in series [2] (setting [11]) came out at 11.9 µM.
As to `C[C@H]1COCCN1c1nc2c(c(-c3csc4ccccc34)n1)CCNCC2` [Respiri-1093], in series [1], the “anti-mycobacterial activity” value was “activity”. The MIC50 in series [1] (setting [9]) is 9.94 µM (≈ 3.78 µg/mL); in series [4] (setting [10]) it was more than 25 µM. Besides, the IC50 in series [3] (setting [12]) is 6.22 µM. The CC50 at 60 h in series [2] (setting [11]) was more than 25 µM.
Turning to `CCCNc1cc(Oc2ccc(NS(=O)(=O)c3ccc(C)cc3)c(C(=O)O)c2)ccc1NS(=O)(=O)c1ccc(C)cc1` [Respiri-1179], the MIC50 in series [1] (setting [5]) and in series [4] (setting [8]) was more than 25 µM each time. In addition, the IC50 in series [3] (setting [7]) is 1.13 µM. In series [2] (setting [6]), the half-maximal cytotoxic concentration (CC50) at 60 h is more than 50 µM.
`CCN(CC)c1cc(Oc2ccc(NS(=O)(=O)c3ccc(C)cc3)c(C(=O)O)c2)ccc1NS(=O)(=O)c1ccc(C)cc1` [Respiri-1180]: the MIC50 in series [1] (setting [5]) is more than 25 µM. In series [3] (setting [7]), the IC50 was found to be 2.38 µM. The same compound gave a CC50 at 60 h in series [2] (setting [6]) of more than 50 µM.
For `CCCCNc1cc(Oc2ccc(NS(=O)(=O)c3ccc(C)cc3)c(C(=O)O)c2)ccc1NS(=O)(=O)c1ccc(C)cc1` [Respiri-1181], the MIC50 in series [1] (setting [5]) and in series [4] (setting [8]) was more than 25 µM throughout. In series [3] (setting [7]), the IC50 was found to be 1.66 µM. This compound returned a CC50 at 60 h in series [2] (setting [6]) of more than 50 µM.
For `O=C1C=CC(=O)N1Cc1ccc2c(c1)OCO2` [Respiri-1208], the MIC50 in series [1] (setting [5]) was more than 25 µM. Moreover, in series [3] (setting [7]), the IC50 is 4.83 µM. In series [2] (setting [6]), this compound displayed a CC50 at 60 h of 15.2 µM.
`CN1C(=O)C2N=CNC2N(C)C1=O` (centres unmarked) [Respiri-1209]: the MIC50 in series [1] (setting [5]) and in series [4] (setting [8]) was more than 25 µM each time. Moreover, in series [3] (setting [7]), the IC50 was 5.63 µM. For the same compound, the CC50 at 60 h in series [2] (setting [6]) is more than 50 µM.
In the case of `Cn1ccnc1C(=O)c1nccn1C` [Respiri-1210], the MIC50 in series [1] (setting [5]) and in series [4] (setting [8]) was more than 25 µM throughout. In addition, the IC50 in series [3] (setting [7]) turned out to be 6.11 µM. The same compound gave a CC50 at 60 h in series [2] (setting [6]) of more than 50 µM.
For the compound `Cc1ccn(-c2ncccn2)c(=O)c1C#N` [Respiri-1211], the MIC50 in series [1] (setting [5]) and in series [4] (setting [8]) was more than 25 µM each time. In addition, the IC50 in series [3] (setting [7]) was 13 µM. The compound further gave a CC50 at 60 h in series [2] (setting [6]) of more than 50 µM.
The compound `CC/C(=C(\c1ccccc1)c1ccc(OCCN(C)C)cc1)c1ccccc1` [Tamoxifen, reference compound] came in with a CC50 at 60 h in series [2] (setting [6]) of 4.54 µM.

The values are drawn from paper PMC10913476, “A high-throughput target-based screening approach for the identification and assessment of Mycobacterium tuberculosis mycothione reductase inhibitors” (Microbiology Spectrum, 2024).
